Experimental data published in patent US20240393340A1, “PROGNOSIS AND PREDICTIVE BIOMARKERS AND BIOLOGICAL APPLICATIONS THEREOF” (INSTITUT GUSTAVE ROUSSY, priority 2013, published 2024).
Like-named read-outs stand apart in the source and are kept apart here. Values belong to the compound of their own block, whether it stands above or below them.

Experiments:
A2058 [1] = assay: Short-term growth-inhibition assay (Example 1); assay type: cell-based; settings: A2058; short-term and long-term proliferation assays, Example 1
Experimental: (§1) FIGS. 1A-1B: Short-term growth-inhibition assay of a panel of melanoma cell lines including BRAF (V600E) cell lines and an NRAS (Q61R) mutated cell line. FIG. 1A. Cells were treated with increasing concentrations of N-[3-[(5-Chloro-1H-pyrrolo[2,3-b]pyridin-3-yl)carbonyl]-2,4-difluorophenyl]-1-propanesulfonamide (PLX-4720) for 72 h and cell viability was determined using CellTiter-Blue by measuring the absorbance at 540 nm in a microplate reader. Error bars show data +standard error. Means were derived from four replicates (n=4). FIG. 1B. Long-term colony formation assay of the indicated cells. Cells were grown in the absence or presence of PLX-4720 at the indicated concentrations for 15-20 days. For each cell line, all dishes were fixed at the same time, stained and photographed. […]
(§2) The inventors quantified the effect of exposing these cell lines to PLX-4720 on the half-maximum inhibitory concentration (IC50) (Table 1).

Mel624 [2] = assay: Short-term growth-inhibition assay (Example 1); assay type: cell-based; settings: Mel624; short-term and long-term proliferation assays, Example 1
Experimental: as §1, §2

A2058 [3] = assay: WST-1 cell proliferation assay (Example 2); assay type: cell-based; settings: for IC50: A2058, 48 h; for sensitivity of the cell line compared to other cell lines (e.g. A375, Mel888): A2058, short-term and long-term proliferation assays, Example 2
Experimental: (§3) Cell viability was determined using the WST-1 cell proliferation assay. Data are means±s.d. (n=3). FIG. 7B: Long-term colony formation assay of the indicated cell lines. Cells were grown in the absence or presence of vemurafenib at the indicated concentrations for two weeks. For each cell line, all dishes were fixed at the same time, stained and photographed.
(§4) Cell viability was determined using the WST-1 cell proliferation assay. Data are means±s.d. (n=4). […] The upper left region of the figure represents increasing degrees of synergy. The minimum and maximum Bliss index values were shown as an interval within square brackets under each isobologram. The Bliss index was calculated as the ratio Observed/Expected where an index=1, […] and >1 indicates additive, antagonistic and synergistic effects, respectively.
(§5) Cell proliferation was measured using a WST-1 reagent (Roche Applied Science, IN, USA). Melanoma cells were plated (5000 cells per well) in 96-well tissue culture plates. After 24 h, the cells were treated with drugs or DMSO at the indicated concentrations, in triplicates. WST-1 reagent was added to the wells and incubated at 37° C. for 2 h before and after the treatment period of 48 h. […] Cell proliferation is expressed as percent of the absorbance compared to mock-treated cells.
(§6) For clonogenic assays, cells were plated at low density (1×10^3 cells per well in a 6-well tissue culture plates) in fresh media. After 24 h, cells were treated with drugs or DMSO at the indicated concentrations, in duplicates. After 14 days cells were stained with 0.5% (w/v) crystal violet in 70% ethanol and the number of colonies was counted.

Mel624 [4] = assay: WST-1 cell proliferation assay (Example 2); assay type: cell-based; settings: for sensitivity of the cell line compared to other cell lines (e.g. A375, Mel888): Mel624, short-term and long-term proliferation assays, Example 2
Experimental: as §3, §4, §5, §6

Mel888 = assay: WST-1 cell proliferation assay (Example 2); assay type: cell-based
Experimental: as §3, §5

A375 = assay: WST-1 cell proliferation assay (Example 2); assay type: cell-based
Experimental: as §3, §5

SKMEL 28 = assay: WST-1 cell proliferation assay (Example 2); assay type: cell-based
Experimental: as §3, §5

Mel10 = assay: WST-1 cell proliferation assay (Example 2); assay type: cell-based
Experimental: as §3, §5

melanoma = settings: patients, cited from earlier work
[5] = Homo sapiens, A-375, A375, 48 h, read-out: IC50
[6] = Homo sapiens, SK-MEL-28, SKMEL 28, 48 h, read-out: IC50

SMILES: O=C(NOC[C@H](O)CO)c1ccc(F)c(F)c1Nc1ccc(I)cc1F [PD 0325901]
- sensitivity of the cell line compared to other cell lines (e.g. A375, Mel888) (A2058 [3]): less sensitive
- IC50 (A2058 [3]; Homo sapiens, read-out: IC50): 33 nM
- IC50 (Mel624 [4]; Mel624, 48 h, read-out: IC50): 96 nM
- sensitivity of the cell line compared to other cell lines (e.g. A375, Mel888) (Mel624 [4]): less sensitive
- IC50 (Mel888; Mel888, 48 h, read-out: IC50): 2 nM
- IC50 (A375; [5]): 10 nM
- IC50 (SKMEL 28; [6]): 9 nM
- IC50 (Mel10; MEL10, 48 h, read-out: IC50): 3 nM

SMILES: COC(=O)[C@H]1[C@@H](O)[C@@]2(O)c3c(OC)cc(O[C@@H]4O[C@@H]([C@H](O)CO)CO[C@H]4OC)cc3O[C@@]2(c2ccc(OC)cc2)[C@@H]1c1ccccc1 [Silvestrol]
- IC50 (A2058 [3]; Homo sapiens): 2 nM
- IC50 (Mel624 [4]; 48 h): 4 nM
- IC50 (Mel888; 48 h): 17 nM
- IC50 (A375; Homo sapiens, A-375, 48 h): 21 nM
- IC50 (SKMEL 28; Homo sapiens, SK-MEL-28, 48 h): 3 nM
- IC50 (Mel10; 48 h): 46 nM

SMILES: CC(C)(C)c1nc(-c2cccc(NS(=O)(=O)c3c(F)cccc3F)c2F)c(-c2ccnc(N)n2)s1 [dabrafenib]
- response rate (objective responses) (melanoma): 50%
- progression-free survival (melanoma; compared with chemotherapy): 5.1 months
- progression-free survival hazard ratio (melanoma; versus chemotherapy): 0.30

The next lines start with results.

- IC50 (A375; A375, 48 h, read-out: IC50): > 100000 nM
- IC50 (SKMEL 28; SKMEL 28, 48 h, read-out: IC50): > 100000 nM
SMILES: O=C(O)C(Cc1ccccc1[N+](=O)[O-])=NNc1nc(-c2ccc(Cl)c(Cl)c2)cs1 (mixture of isomers) [4EGi-1]
- sensitivity of the cell line compared to the other BRAF (V600E)-mutated melanoma cell lines (A2058 [1]): more sensitive
- sensitivity of the cell line compared to the other BRAF (V600E)-mutated melanoma cell lines (Mel624 [2]): more sensitive
- IC50 (A2058 [3]; read-out: IC50): 50000 nM
- sensitivity of the cell line compared to other cell lines (e.g. A375, Mel888) (A2058 [3]): more sensitive
- IC50 (Mel624 [4]; Mel624, 48 h, read-out: IC50): 26000 nM
- sensitivity of the cell line compared to other cell lines (e.g. A375, Mel888) (Mel624 [4]): more sensitive
- IC50 (Mel888; Mel888, 48 h, read-out: IC50): 77000 nM
- IC50 (Mel10; MEL10, 48 h, read-out: IC50): > 100000 nM

- IC50 (A375; A375, 48 h, read-out: IC50): 35000 nM
- IC50 (SKMEL 28; SKMEL 28, 48 h, read-out: IC50): 60000 nM
SMILES: Nc1ncnc2n[nH]c(Nc3ccc(F)cc3)c12 [CGP 57380]
- IC50 (A2058 [3]; read-out: IC50): > 100000 nM
- sensitivity of the cell line compared to other cell lines (e.g. A375, Mel888) (A2058 [3]): less sensitive
- IC50 (Mel624 [4]; Mel624, 48 h, read-out: IC50): > 100000 nM
- sensitivity of the cell line compared to other cell lines (e.g. A375, Mel888) (Mel624 [4]): less sensitive
- IC50 (Mel888; Mel888, 48 h, read-out: IC50): 25000 nM
- IC50 (Mel10; MEL10, 48 h, read-out: IC50): 28000 nM

- IC50 (A375; [5]): 400 nM
- IC50 (SKMEL 28; [6]): 400 nM
SMILES: CCCS(=O)(=O)Nc1ccc(F)c(C(=O)c2c[nH]c3ncc(-c4ccc(Cl)cc4)cc23)c1F [Vemurafenib]
- IC50 (A2058 [3]; Homo sapiens, read-out: IC50): 2400 nM
- IC50 (Mel624 [4]; Mel624, 48 h, read-out: IC50): 2000 nM
- IC50 (Mel888; Mel888, 48 h, read-out: IC50): 100 nM
- IC50 (Mel10; MEL10, 48 h, read-out: IC50): > 10000 nM
